Reference: patent US8002883B2, “Amidoalkylamine-comprising azole compositions for protecting industrial materials” (LANXESS Deutschland GmbH, priority 2009, dated 2011)

Assays:
[1] = tested on: Poria placenta; experiment: Agar hyphae growth test, minimum inhibitory concentration (MIC) and Kull synergism; format: cell-based; details: malt extract/peptone nutrient agar, 26° C., radial hyphae growth suppressed completely; read-out: MIC against Poria placenta
Procedure: (§1) The synergism was determined by the method described by Kull et al. (F. C. Kull, P. C. Eismann, H. D. Sylvestrowicz, R. L. Mayer, Applied Microbiology 1961, 9, 538-541). Here, the following relations apply:
(§2) [formula] X=1 means additivity X>1 means antagonism X<1 means synergism Qa=concentration of substance A which is the MIC Qb=concentration of substance B which is the MIC QA=concentration of substance A in the concentration of A/B which suppresses the microbial growth QB=concentration of substance B in the concentration of A/B which suppresses the microbial growth Results:
(§3) Mycelium pieces were punched out of a colony of the wood-destroying fungus Poria placenta and incubated at 26° C. on a malt extract/peptone-containing nutrient agar. The hyphae growth with and without added active compound and/or additive was compared. The minimum inhibitory concentration (MIC) stated is the concentration at which the radial hyphae growth is suppressed completely.

[2] = tested on: Gloeophyllum trabeum; experiment: as above; format: cell-based; details: 168 h, malt extract/peptone nutrient agar, 26° C., radial hyphae growth suppressed completely, about 1 week, read-out: MIC against Gloeophyllum trabeum
Procedure: as §3, with “Gloeophyllum trabeum” for “Poria placenta”, “amidoalkylamine” for “additive”, “completely (incubation time: about 1 week depending on the fungal growth of the comparative sample without active compound).” for “completely.”
as §1
as §2, with “Results: […]” for “Results:”

Structure (SMILES) | MIC [1] [µg/mL] | MIC [2] [µg/mL]
CCCC1COC(Cn2cncn2)(c2ccc(Cl)cc2Cl)O1 (stereo not drawn) [propiconazole] | 0.5 | –
CC(C)(C)C(O)(CCc1ccc(Cl)cc1)Cn1cncn1 (stereo not drawn) [tebuconazole] | – | 0.5
CC(C)(C)C(=O)C(Oc1ccc(Cl)cc1)n1cncn1 (stereo not drawn) [triadimefon] | 3 | –
